Each structure is given as a SMILES string. Where a name gives a salt, the structure may show the parent alone.

This assay has as its target T1, TLR7/NFKb HEK cells (Homo sapiens, UniProt Q9NYK1).
T1 construct: expressed in transfected cells; host or cells: HEK cells (TLR7/NFKb reporter line)
T1 sequence (Q9NYK1 27-1049): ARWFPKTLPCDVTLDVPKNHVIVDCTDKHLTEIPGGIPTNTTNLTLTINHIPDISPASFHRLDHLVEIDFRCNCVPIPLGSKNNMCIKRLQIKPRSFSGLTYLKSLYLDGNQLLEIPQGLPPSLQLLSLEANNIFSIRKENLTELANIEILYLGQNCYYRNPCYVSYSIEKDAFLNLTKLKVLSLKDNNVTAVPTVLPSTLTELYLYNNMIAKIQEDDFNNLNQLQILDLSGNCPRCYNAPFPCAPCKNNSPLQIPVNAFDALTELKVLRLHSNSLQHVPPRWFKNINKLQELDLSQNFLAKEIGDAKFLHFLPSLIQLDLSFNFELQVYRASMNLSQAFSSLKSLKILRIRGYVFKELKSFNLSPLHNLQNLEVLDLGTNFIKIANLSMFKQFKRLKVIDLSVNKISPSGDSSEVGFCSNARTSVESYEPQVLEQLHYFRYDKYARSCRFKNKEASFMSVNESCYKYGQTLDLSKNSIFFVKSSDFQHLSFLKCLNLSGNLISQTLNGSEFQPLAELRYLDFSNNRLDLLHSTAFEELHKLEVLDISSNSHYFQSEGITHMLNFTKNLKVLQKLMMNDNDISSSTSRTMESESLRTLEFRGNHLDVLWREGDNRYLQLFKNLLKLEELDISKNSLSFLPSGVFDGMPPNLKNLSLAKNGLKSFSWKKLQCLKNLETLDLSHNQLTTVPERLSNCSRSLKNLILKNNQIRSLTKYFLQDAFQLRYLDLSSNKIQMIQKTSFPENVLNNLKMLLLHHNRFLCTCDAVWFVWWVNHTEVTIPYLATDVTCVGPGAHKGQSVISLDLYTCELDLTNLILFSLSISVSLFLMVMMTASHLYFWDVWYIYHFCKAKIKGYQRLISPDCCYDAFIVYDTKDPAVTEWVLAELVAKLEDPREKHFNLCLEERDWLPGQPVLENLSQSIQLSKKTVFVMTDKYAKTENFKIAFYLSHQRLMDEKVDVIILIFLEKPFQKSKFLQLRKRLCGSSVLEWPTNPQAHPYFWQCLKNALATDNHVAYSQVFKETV
Briefly: HEK Cell Assay (TLR7/NFKb reporter, Steady-Glo luciferase readout). The format is cell-based. As to conditions: 30 min compound preincubation, then R*48 agonist for 5 hours, read-out: Potency. Summed up:
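Steady-Glo luminescence after 5 h stimulation with R*48 agonist, following 30 min compound preincubation. Assay run in HEK cells carrying a TLR7/NFKb luciferase reporter, plated at 5000 cells/well and grown 24 h at 37° C (10% CO2) before treatment.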
Take `C[C@H]1C[C@@H](NC(=O)CN(C)C)CN(c2ccc(C(F)F)c3ncccc23)C1` [Compound 209, N-[(3R,5S)-1-[8-(difluoromethyl)quinolin-5-yl]-5-methylpiperidin-3-yl]-2-(dimethylamino)acetamide]: the IC50 was under 1000 nM. The result for `C[C@H]1C[C@@H](NC(=O)CC2CCCN(C)C2)CN(c2ccc(C(F)(F)F)c3ncccc23)C1` (stereo partly drawn) [Compound 279, N-[(3R,5S)-5-methyl-1-[8-(trifluoromethyl)quinolin-5-yl]piperidin-3-yl]-2-(1-methylpiperidin-3-yl)acetamide] reads under 1000 nM; that for `CN1CCCC1CNC(=O)C1CCN(c2ccc(C(F)(F)F)c3ncccc23)CC1` (stereo not drawn) [Compound 442, 1-(8-Trifluoromethyl-quinolin-5-yl)-piperidine-4-carboxylic acid (1-methyl-pyrrolidin-2-ylmethyl)-amide], under 1000 nM; that for `C[C@@H]1CN(c2ccnc3nccnc23)C[C@H](CN2CCC(N3CCCCC3)CC2)O1` [Compound 58, (2S,6R)-2-(1,4′-bipiperidin-1′-ylmethyl)-6-methyl-4-(pyrido[2,3-b]pyrazin-8-yl)morpholine], under 1000 nM.

Turning to `C[C@H]1C[C@@H](NC(=O)[C@H](C)N)CN(c2ccnc3nccnc23)C1` [Compound 27, (S)-2-amino-N-((3R,5S)-5-methyl-1-(pyrido[2,3-b]pyrazin-8-yl)piperidin-3-yl)propanamide], the IC50 lay in the range of 1000 to 10000 nM. The result for `N#Cc1ccc(N2CCC(F)C(N)C2)c2nccnc12` (stereo not drawn) [Compound 524, 8-(3-Amino-4-fluoro-piperidin-1-yl)-quinoxaline-5-carbonitrile hydrochloride] reads 1000 to 10000 nM. Regarding `CC(C)(C)CC(=O)N[C@H]1CN(c2ccc(C#N)c3nccnc23)CC(C)(C)C1` [Compound 215, N-[(3R)-1-(8-cyanoquinoxalin-5-yl)-5,5-dimethylpiperidin-3-yl]-3,3-dimethylbutanamide], the IC50 is under 1000 nM. The result for `C[C@H]1C[C@@H](N)CN(c2ccnc3ccccc23)C1` [Compound 11, (3R,5S)-5-methyl-1-(quinolin-4-yl)piperidin-3-amine] reads 1000 to 10000 nM. The figure for `C[C@H]1C[C@@H](NC(=O)[C@H](N)c2ccccc2)CN(c2ccc(C#N)c3nccnc23)C1` [Compound 119, (2R)-2-amino-N-[(3R,5S)-1-(8-cyanoquinoxalin-5-yl)-5-methylpiperidin-3-yl]-2-phenylacetamide] is under 1000 nM; for `CCN(CC)CCNCC1CCN(c2c(C)c(C)nc3ccc(F)cc23)CC1` [Compound 385, N,N-Diethyl-N′-[1-(6-fluoro-2,3-dimethyl-quinolin-4-yl)-piperidin-4-ylmethyl]-ethane-1,2-diamine] it is 1000 to 10000 nM. The figure for `FC(F)(F)CCN[C@H]1C[C@@H](C(F)(F)F)CN(c2ccnc3nccnc23)C1` (relative stereo) [Compound 96, cis-1-[pyrido[2,3-b]pyrazin-8-yl]-5-(trifluoromethyl)-N-(3,3,3-trifluoropropyl)piperidin-3-amine hydrochloride] is over 10000 nM. As for `COc1ccc(N2C[C@@H](C)C[C@@H](NC(=O)[C@@H](O)C(C)C)C2)c2cccnc12` [Compound 188, (2S)-2-hydroxy-N-[(3R,5S)-1-(8-methoxyquinolin-5-yl)-5-methylpiperidin-3-yl]-3-methylbutanamide], the IC50 is under 1000 nM. As to `C[C@H]1C[C@@H](NC(=O)Cc2c[nH]cn2)CN(c2ccc(C#N)c3nccnc23)C1` [Compound 130, N-[(3R,5S)-1-(8-cyanoquinoxalin-5-yl)-5-methylpiperidin-3-yl]-2-(1H-imidazol-4-yl)acetamide hydrochloride], the IC50 is under 1000 nM.

`C[C@H]1C[C@@H](N)CN(c2c(F)cc(C#N)c3nccnc23)C1` [Compound 342, 8-[(3R,5S)-3-amino-5-methylpiperidin-1-yl]-7-fluoroquinoxaline-5-carbonitrile]: the IC50 is 1000 to 10000 nM. The figure for `COC(C)C(=O)N[C@@H]1C[C@H](C)CN(c2ccnc3nccnc23)C1` (single isomer, unassigned) [Compound 160] is over 10000 nM.

Source of the values: patent US10947213B1 (Merck Patent GmbH, priority 2015, dated 2021).
